We go through one compound from patent publication US12178825B2, “Method and compositions for forming a copper-containing complex and uses thereof” (COLD SPRING HARBOR LABORATORY, priority 2017, dated 2024).

SMILES strings stand for the structures. “Also recorded” adds a separate entry of the source.

Series [1] has as its system TX mice. The series can be described thus: Survival and tolerability in the TX mouse model of Wilson's disease. It counts as in vivo. As for the experimental part: (§1) C3He-Atp7b^tx-j were obtained from the Jackson laboratory. All animal experiments were performed according to protocols approved by the Institutional Animal Use and Care Committee of Cold Spring Harbor laboratory. Mice were injected intraperitoneally (i.p.) with vehicle, or administered DPM-1001 intraperitoneally or orally at 5 mg/kg once every third day, for over a year. At the end of the study animals were euthanized and tissue samples were removed for biochemical studies.

Series [2] relates to JAK2. The series can be described thus: Leptin signaling in hypothalamus of treated mice. It counts as in vivo. The conditions noted are these: leptin-induced. As for the experimental part: Technology (JAK2, catalog 3230, clone D2E12; p-T308 AKT (catalog 13038, clone D25E6); AKT (catalog 4691, clone C67E7) and Sigma-Aldrich (actin, catalog A2228, clone AC-74).
All protocols were approved by the Institutional Animal Use and Care Committee of Cold Spring Harbor laboratory. 10 week-old male mice fed chow diet or high-fat diet (D12492) were acclimatized for 10 days under standard conditions before experiments. Mice were injected intraperitoneally (i.p.) once daily with vehicle, 5 mg/kg of DPM-1001 intraperitoneally or orally for 50 days. Mice were euthanized after 6 h of fasting, and serum samples were collected to measure the metabolic parameters and tissue samples were collected for studying changes in signaling.

Series [3] can be described thus: ESI-MS analysis of complex formation with copper salts. It counts as binding. As for the experimental part: Eight equivalents of M(NO3)2·xH2O or MSO4·xH2O (M=Cu, Zn) were reacted with 1 eq. of DPM-1001 (1 mM in H2O). The reaction solutions were stirred at RT, 40° C. and 80° C. for 2 h. Mass spectra were recorded on a Bruker Esquire 6000 HCT quadrupole ion trap instrument (Bruker Daltonik GmbH, Leipzig, Germany), equipped with an electrospray ionization (ESI) source. Generation of the molecular formula of the DPM-1001/Cu(II) species and the comparison between the theoretical (simulated) and the measured isotopic patterns was performed using the DataAnalysis 4.0 software (Bruker).
(§2) Eight equivalents of M(NO3)2·xH2O or MSO4·xH2O were reacted with 1 eq. of DPM-1001, DPM-1003 or analog 2 (1 mM in H2O). The reaction solutions were stirred at RT, 40° C. and 80° C. for 2 h. Each sample was diluted 5-fold in 50% methanol, 0.1% formic acid and loaded into a 500 μL syringe. A Thermo Vantage triple quadrupole mass spectrometer (Thermo Scientific), equipped with an HESI spray source was coupled to an Accela HPLC system (Thermo Scientific). Mobile phase A consisted of 0.1% formic acid and mobile phase B consisted of 0.1% formic acid in methanol. Isocratic flow was set to 50% B at 200 μL/min. 200 μl samples were injected into the LC flow line via syringe pump at 10 μL/min and electrosprayed into the Vantage triple quadrupole mass spectrometer. A spray voltage of 4.3 kV was used along with a capillary temperature of 350° C. Each full MS scan was 0.5 s and data were collected with a scan range of 200 m/z to 900 m/z over 1 min.
Binding of compounds of Formula I other than DPM-1001 was also confirmed. In an ESI-MS test, compound DPM-1013 as hydrochloride salt was dissolved in distilled water at a concentration of 2 mM freshly before testing. It was then mixed with an equal volume copper sulfate (16 mM) or copper chloride solution (16 mM) for 2 h, rendering a concentration of DPM-1013 at 1 mM and the copper salt 8 mM. The mixture was then further diluted 100-fold before injection into an ESI-MS, making a final concentration of DPM-1013 of 10 μM and Cu 80 μM in the test.
Binding percentage=peak intensity of all DPM-1013-Cu complex/(peak intensity of all DPM-1013-Cu complex+peak intensity of free DPM-1013).

Series [4] is described as follows: ESI-MS analysis of complex formation with a series of other metal ions. It counts as binding. The conditions noted are these: panel of metals. The procedure:
as §2

Series [5] relates to TNBC cells. The series can be described thus: Annexin V and propidium iodide staining. It counts as cell-based. The procedure:
Cells (1×10^5) were plated in six-well plates in growth medium. The cells were untreated or treated with DPM-1001 (2 μM). Following which, cells were washed with cold PBS twice and resuspended in 0.1 M Hepes/NaOH (pH 7.4), 1.4 M NaCl, 25 mM CaCl2). To the cell suspension 5 μl of fluorescein isothiocynate (FITC)-conjugated annexin V (0.1 mg/ml) and propidium iodide (1 mg/ml) were added and the samples were incubated in dark for 30 minutes at room temperature. The samples were analyzed by flow cytometry (Becton Dickinson LSRII Cell Analyzer).

In series [6] the test system is non-TNBC cell lines. The series can be described thus: MTT cell survival, non-TNBC cell lines. Type of series: cell-based. The procedure:
The MTT assay was used to evaluate cell survival in the absence and presence of different compounds. The thiazolyl blue tetrazolium bromide (MTT) was dissolved in phosphate buffered saline (PBS) at a concentration of 5 mg/ml, filtered, and stored at 4° C. About 10,000 cells were seeded into a 96-well plate and cultured in growth medium containing serum. After 24 hours, cells were treated with the indicated concentrations of DPM-1001 or DPM-1003 (0-100 uM) for 2 hrs. Following which 20 μl MTT was added into each well. An ELISA plate reader (Biotek, Winooski, Vermont, USA) was used to measure the optical density at 490 nm.

Series [7] deals with TX mice. Put plainly: Tissue and fecal copper levels (ICP-MS, rhodanine staining). It counts as in vivo, mouse. The procedure:
as §1
Tissue samples from wild-type or TX mice treated with saline, DPM-1001 or tetrathiomolybdate was washed three times with PBS containing 1 mM EDTA (to remove nonspecifically bound copper). Then, 215 μl of concentrated nitric acid (BDH Aristar Ultra) was added to each sample and incubated overnight. Samples were boiled at 95° C. for 1 h. and approximately 150 μl of each sample was further diluted in 2 ml 2% nitric acid (made freshly from concentrated nitric acid and Milli-Q water) Samples were analyzed on a Thermo Fisher iCAP Qc ICP mass spectrometer in kinetic energy discrimination (KED) mode against a calibration curve of known copper and phosphorus concentrations, with Ga (20 μg/l, Inorganic Ventures) as an internal standard, Each experiment was carried out twice and each condition was repeated in at least triplicate.
Liver tissues from wild-type and TX mice from untreated and DPM-1001-treated mice were sectioned and stained with H&E or rhodanine. Whole-slide, digitized images of H&E-stained tissue were captured using the Aperio ScanScope XT automated scanning system (Vista, CA). Image J software was used to quantitate rhodanine staining.

For the compound `COC(=O)CCC(C)C1CCC2C3C(O)CC4CC(NCCCCNCc5ccccn5)CCC4(C)C3CCC12C` (stereo not drawn) [DPM-1001], the “longevity of TX mice (in words)” value in series [1] (5 mg/kg, every third day) is “prolongs their life”. In addition, the entries for the “survival at one year of age” value in series [1] (TX mice) and in series [1] (wild-type mice) were 90% and 100%, respectively. Also, the “toxic side-effects of prolonged treatment” value in series [1] (wild-type or TX mice) is “did not have overt toxic side-effects”. Also, in series [2], the “phosphorylation of JAK2” value is reported as “increased leptin-induced JAK2 phosphorylation; also recorded: enhanced phosphorylation of JAK2”. Besides, the “complex formation with copper” value in series [3] is “Formed a Stable Complex with Copper(II)”. The “complex formation with other metals” value in series [4] is reported as “none formed a complex with the compound”. In addition, the “mechanism of reduced cell survival” value in series [5] was “due to promoting death of these cells”. Also, the “survival of non-TNBC cell lines, DPM-1001 versus DPM-1003” value in series [6] was “did not differ from each other”. The “copper levels in feces” value in series [7] (TX mice) is recorded as “dramatically elevated”; in series [7] (TX mice, listed as DMP-1001) it was “elevated copper levels in feces”. The “rhodanine staining of liver” value in series [7] (TX mice) is on record as “no obvious staining for rhodanine”; in series [7] (wild-type mice), “No signal was detected”. Also, the “copper levels in liver and brain” value in series [7] (TX mice, ICP-MS) is “inhibits copper accumulation in liver and brain; also recorded: lowered the levels of copper in both tissues; also recorded: as effective as tetrathiomolybdate in removing copper from the liver and brain”. Besides, the “copper levels in kidney” value in series [7] (wild-type and TX mice, ICP-MS) was “does not promote accumulation of copper in the kidney; also recorded: no significant differences”.
